Experimental data published in paper PMC6789782, “Safety Pharmacological Evaluation of the Coffee Component, Caffeoylquinic Acid, and Its Metabolites, Using Ex Vivo and In Vitro Profiling Assays” (Pharmaceuticals, 2019).
“And” between values parts separate entries of the source, which are not always exact repeats. Equal values may be shown once.

Assays:
[1] = tested on: isolated perfused guinea pig heart; assay: Langendorff perfused heart assay; settings: for % change in LV dP/dt max from pre-application / % change in LVPSP from pre-application: mean ± SD, n = 3
Procedure: After injection of heparin sodium (100 unit/body, AY Pharmaceuticals Co., Ltd.) into the jugular vein, the animals were exsanguinated. […] A stainless-steel cannula was inserted in the aorta, followed by attachment to the Langendorff apparatus (Physio-Tech Co., Ltd., Tokyo, Japan). The attached heart was perfused with KH solution at 37.0 ± 0.2 °C. Before use, the KH solution was aerated by a gas mixture (95%O2 + 5%CO2) for 30 min or longer. The perfusion pressure was maintained at 70 mmHg.
DMSO solutions at 1, 10, and 100 mM were diluted 1000-fold with the KH solution to make test solutions of 1, 10, and 100 μM, respectively. The test solutions were cumulatively applied at a flow rate of 20 mL/min for 10 min with each concentration.
An ECG signal was recorded using electrodes fixed on the ventricular apex (+), and a stainless-steel cannula was inserted in the aorta (−), and LVP was recorded from the balloon catheter placed in the left ventricle. The ECG signals were amplified with an amplifier (DAM50; World Precision Instruments, Inc.) and LVPs were monitored with a Pressure Monitor 4 (Living Systems Instrumentation). Both of the waveforms were recorded with computer software (1000 Hz; iox2 and ecgAUTO3; emka Technologies).
Before measurement, the in-balloon pressure was adjusted so that the diastolic blood pressure would be in the range of 0 to 10 mmHg. The cardiac parameters, such as HR, PR interval, QRS duration, QT interval, QTc interval (Fridericia’s formula: QTc = QT/RR^1/3), LVPSP, left-ventricular end diastolic pressure (LVEDP), and LV dP/dt max, were measured.
Data are expressed as mean (± SD). The measured % changes from the pre-application value were used for analyses. Williams test was carried out between the solvent-control and test compound. Student’s t-test was carried out between the solvent-control and positive-control. […] The data from the solvent control and drug groups were tested by F test for homogeneity of variance. F test was performed at the significance level of 5%. When the variances were homogeneous, Student’s t-test was subsequently performed. When the variances were nonhomogeneous, Welch t-test was selected.

[2] = tested on: Calcium Channel L-Type, Dihydropyridine; assay: In vitro profiling, binding assay; parameters: species or system rat; settings: 30 µM
Procedure: (§1) Binding and functional assays of CGAs with the proteins known to be pharmacological targets related to the CVS, CNS, and GI functions were conducted. […] In the binding assay, we measured the radiation activity of the solution containing filtered proteins that bound to the tested compound or high-affinity ligand, while in the functional assays, we measured the reaction product. The ability of the test compound to interact with the tested targets was measured as the inhibition of ligand binding to the target or reaction product production (% inhibition).

[3] = tested on: Calcium Channel L-Type, Phenylalkylamine; assay: In vitro profiling, binding assay; parameters: species or system rat; settings: 30 µM
Procedure: as §1

[4] = tested on: Glutamate, NMDA; assay: In vitro profiling, binding assay; parameters: species or system rat; settings: 30 µM
Procedure: as §1

[5] = tested on: Sodium Channel; assay: In vitro profiling, binding assay; parameters: species or system rat; settings: 30 µM
Procedure: as §1

[6] = tested on: GABAA; assay: In vitro profiling, binding assay; parameters: species or system rat; settings: 30 µM
Procedure: as §1

[7] = tested on: Calcium Channel L-Type, Benzothiazepine; assay: In vitro profiling, binding assay; parameters: species or system rat; settings: 30 µM
Procedure: as §1

[8] = tested on: mice; settings: 96 weeks; cited from earlier work
[9] = tested on: rat hippocampal slices; assay: Electrophysiological assay of hippocampal slices, population spike (PS) recording
Procedure: All animals were housed and used in accordance with the French and European legislations for animal care. Rats (Janvier Labs, Le Genest-Saint-Isle, France) were euthanized by fast decapitation, without prior anesthesia. The brain was quickly removed and soaked in ice-cold oxygenated buffer containing KCl 2 mM, NaH2PO4 1.2 mM, MgCl2 7 mM, CaCl2 0.5 mM, NaHCO3 26 mM, glucose 11 mM, and sucrose 250 mM. […] During the experiments, slices were perfused with oxygenated artificial cerebrospinal fluid at 37 °C at a rate of 3 mL/min. The tested slice numbers were > 2 for 100 µM, > 4 for 10 µM, and > 6 for 1 µM (follow-up study). All experiments were carried out with 3-dimensional multielectrode array (Qwane Biosciences S.A., Lausanne, Switzerland) and data were recorded with a commercially available multielectrode array set-up from MultiChannel Systems (MCS GmbH, Reutlingen, Germany).
A hippocampal slice was placed on the multielectrode array (100 μm distant electrodes). One electrode was chosen to stimulate schaffer collaterals (SC) at the CA1 border. The stimulus in a monopolar biphasic current pulse (−300 μA for 60 μs followed by +300 μA for 60 μs) was applied at 30-s intervals. An Input/Output (I/O) curve was derived before each experiment to determine the stimulation intensity. Basal stimulation intensity was then set to 100 μA higher than the minimal intensity necessary to induce PS in the pyramidal cell layer.
Then, 1 μM bicuculline, the antagonist of GABAA, was applied in the continuous presence of the compound for an additional 40-min. Control bicuculline slices were recorded in parallel and after 50 min of control recording, 1 μM bicuculline was applied for a 40-min period.
Normalized PS AUC was averaged by slices for each experiment carried out in the same conditions. PS AUC (± SEM) is expressed as a function of time. The number of PS oscillations induced at the end of the bicuculline-exposure period was determined for each electrode and averaged by slices. The results are presented as mean of the last 2 min of application. Statistical significance was measured using two-way ANOVA analysis with Sidak’s multiple comparisons test, except for the 100 µM concentration because of its small slice number.

[10] = tested on: ileum isolated from guinea pig; assay: In vitro Magnus assay, ileum; settings: 100 µM; ± SEM; p < 0.05
Procedure: (§2) Guinea pigs (Japan SLC, Inc., Shizuoka, Japan) were anesthetized with pentobarbital sodium (30–50 mg/kg, i.p.) and the stomach fundi, ileums, and colons were dissected after being exsanguinated. Tissues were immediately placed in Tyrode’s solution containing NaCl 136.9 mM, KCl 2.7 mM, MgCl2.6H2O 1.2 mM, CaCl2.2H2O 2.0 mM, NaHCO3 11.9 mM, and D(+)-glucose 5.6 mM, and flushed for luminal content removal. Segments of approximately 2 cm were cut from each tissue and placed in an organ bath containing Tyrode’s solution aerated with O2:CO2 (95:5) at 32 °C. The tissue segments were connected to an isometric transducer (load, 1.0 g) to record the contractions (Nihon Kohden Corporation, Tokyo, Japan).
(§3) Maximum recording period for one condition was 20 min, and the test solution was exchanged when no effect was detected within 3 min. […] The concentration of acetylcholine was set based on preliminary experiments.

[11] = tested on: GI transit and gastric emptying; settings: rats; dose-dependent manner; cited from earlier work
[12] = tested on: fundus isolated from guinea pig; assay: In vitro Magnus assay, stomach fundus; settings: 100 µM; ± SEM; p < 0.01
Procedure: as §2, §3

Compound | % change in LV dP/dt max from pre-application ([1]; 10 μM) [%] | % change in LVPSP from pre-application ([1]; 10 μM) [%] | % change in LV dP/dt max from pre-application ([1]; 100 μM) | % change in LVPSP from pre-application ([1]; 100 μM) [%] | % Inhibition [2] [%] | % Inhibition [3] [%] | % Inhibition [4] [%] | % Inhibition [5] [%] | % Inhibition [6] [%] | % Inhibition [7] [%] | Safety pharmacological toxicity on chronic exposure [8] | Additional spike number ([9]; 10 μM compound, co-exposure with 1 μM bicuculline) | Tension in the ileum [10] [g] | Effect on GI transit and gastric emptying [11] | Effect on LVP ([1]; at 100 μM) | Change in ECG parameters compared to solvent control ([1]; until 100 µM) | Additional spike number ([9]; follow-up test, 1 µM alone, single application period) | Tension in the fundus [12] [g]
O=C(O)/C=C/c1ccc(O)c(O)c1 [CA, caffeic acid] | −6.5 ± 1.6 | −4.3 ± 0.8 | −8.8 ± 0.8% | −6.2 ± 0.9 | 7 | 21 | 5 | 1 | 18 | −3 | no safety pharmacological toxicity |  |  |  |  |  |  | 
COc1cc(/C=C/C(=O)O[C@H]2C[C@@](O)(C(=O)O)C[C@H](O)[C@@H]2O)ccc1O [5-FQA, 5-O-feruloylquinic acid] |  |  |  |  | 6 | 19 | 10 | 10 | 15 | 6 |  | in the same range as the bicuculline control slices |  |  |  |  |  | 
O=C(/C=C/c1ccc(O)c(O)c1)O[C@H]1C[C@@](O)(C(=O)O)C[C@H](O)[C@@H]1O [5-CQA, 5-O-caffeoylquinic acid] |  |  | −12.0 ± 6.2% and −12% | −8.5 ± 6.2 | 1 | 14 | 9 | 19 | 8 | −3 |  |  | 0.293 ± 0.068 |  |  |  |  | 
COc1cc(/C=C/C(=O)O)ccc1O [FA, ferulic acid] |  |  |  |  | 1 | 26 | 16 | 5 | 1 | 6 |  |  |  | significantly accelerates | did not affect | no significant change | did not trigger multiple spikes | 0.089 ± 0.005
